The values that follow are results of earlier work, collected in patent US20200236925A1, “METHODS AND FORMULATIONS FOR PREVENTING DOWNWARD MIGRATION OF AGRICULTURAL MATERIALS” (BAYER CROPSCIENCE LP, priority 2019, published 2020).

In series [1] the test system is hybrid bermudagrass. The note with it: 35 or 52 g ha-1, fall or spring treatments.
The test system of series [2] is hybrid bermudagrass. The note with it: application rate increased from 35 to 53 g ha-1; SOC ≤0.3% w w-1.

Consider `Cc1ccc2c(c1)[C@H](Nc1nc(N)nc(C(C)F)n1)[C@@H](C)C2` (mixture of isomers) [indaziflam, N2-[(1R,2S)-2,3-dihydro-2,6-dimethyl-1H-inden-1-yl]-6-[(1RS)-1-fluoroethyl]-1,3,5-triazine-2,4-diamine], for which the “hybrid bermudagrass root strength vs nontreated” value in the series on hybrid bermudagrass [1] is on record as “no differences in hybrid bermudagrass root strength”. The “increase of hybrid bermudagrass injury” value in the series with hybrid bermudagrass [2] is recorded as over 10 fold. In addition, under “distilled water”, the “solubility in distilled water” value was 2.8 µg/mL. Also, the field-T1/2 (field persistence) was over 150 days. In addition, the “aqueous solubility (Ks)” value (pH 7) is 2.4 µg/mL.
